Source: PMC7249047, “Search for ABCB1 Modulators Among 2-Amine-5-Arylideneimidazolones as a New Perspective to Overcome Cancer Multidrug Resistance” (Molecules, 2020)
Where “and” joins values, the source holds several entries; their conditions need not be identical. Identical values can stand only once.

How the values were obtained:
ABCB1 efflux pump = ABCB1 efflux pump (Homo sapiens, UniProt P08183); assay: Rhodamine 123 accumulation assay (flow cytometry); settings: for efflux pump inhibiting effect relative to verapamil: 20 µM, same concentration as verapamil; for FAR Quotient (%): FAR of compound related to FAR of VER tested at 20 µM; for FAR (fluorescence activity ratio): rhodamine 123 accumulation, MDR vs PAR mouse T-lymphoma cells
Chain of ABCB1 efflux pump (P08183 whole entry): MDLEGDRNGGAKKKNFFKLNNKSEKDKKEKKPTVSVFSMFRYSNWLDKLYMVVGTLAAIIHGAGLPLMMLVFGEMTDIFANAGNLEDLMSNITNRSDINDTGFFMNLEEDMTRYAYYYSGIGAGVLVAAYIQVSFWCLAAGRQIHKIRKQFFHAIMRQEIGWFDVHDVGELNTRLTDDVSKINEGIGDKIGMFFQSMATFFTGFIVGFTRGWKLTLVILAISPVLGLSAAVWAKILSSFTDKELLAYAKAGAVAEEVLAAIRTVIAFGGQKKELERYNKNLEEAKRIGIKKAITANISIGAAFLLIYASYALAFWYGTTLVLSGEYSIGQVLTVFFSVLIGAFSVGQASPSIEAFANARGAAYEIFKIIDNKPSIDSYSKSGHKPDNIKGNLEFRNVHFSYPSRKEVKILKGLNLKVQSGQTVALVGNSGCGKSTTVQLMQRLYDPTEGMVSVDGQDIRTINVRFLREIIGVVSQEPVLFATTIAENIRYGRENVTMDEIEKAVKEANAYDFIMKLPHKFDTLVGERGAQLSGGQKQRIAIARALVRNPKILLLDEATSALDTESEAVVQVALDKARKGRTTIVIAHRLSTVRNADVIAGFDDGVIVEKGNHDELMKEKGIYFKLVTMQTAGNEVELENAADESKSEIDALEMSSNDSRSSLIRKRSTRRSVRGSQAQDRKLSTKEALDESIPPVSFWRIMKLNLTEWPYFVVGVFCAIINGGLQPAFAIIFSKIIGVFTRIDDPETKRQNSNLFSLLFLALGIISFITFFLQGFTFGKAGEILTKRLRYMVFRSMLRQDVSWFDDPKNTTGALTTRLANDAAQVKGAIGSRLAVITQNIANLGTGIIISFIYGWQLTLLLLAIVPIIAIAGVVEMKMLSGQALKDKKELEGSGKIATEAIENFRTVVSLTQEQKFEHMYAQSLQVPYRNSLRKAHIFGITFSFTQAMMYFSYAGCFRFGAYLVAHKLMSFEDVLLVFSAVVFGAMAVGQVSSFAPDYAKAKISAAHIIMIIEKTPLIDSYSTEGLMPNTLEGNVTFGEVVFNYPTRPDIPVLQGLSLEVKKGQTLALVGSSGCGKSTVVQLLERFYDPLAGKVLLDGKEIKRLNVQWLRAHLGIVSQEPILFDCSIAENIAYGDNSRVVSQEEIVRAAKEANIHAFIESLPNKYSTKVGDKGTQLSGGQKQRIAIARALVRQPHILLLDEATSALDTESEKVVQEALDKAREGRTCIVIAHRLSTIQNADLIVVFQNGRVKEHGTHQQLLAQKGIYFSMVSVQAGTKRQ
Method: The study was carried out on mouse T-lymphoma cell lines, including the parental sensitive line (PAR) and its multidrug-resistant subline (MDR) transfected with the human MDR1 (ABCB1) gene. […] The fluorescence activity ratio (FAR), as a measure of the efflux pump modulating properties, was calculated based on the fluorescence data obtained [23, 24, 25]. […] The parental L5178 mouse T-cell lymphoma cells and the L5178Y human ABCB1-transfected subline were cultured in McCoy’s 5A medium (Sigma-Aldrich, St Louis, MO, USA) supplemented with 10% heat-inactivated horse serum (Sigma-Aldrich, St Louis, MO, USA), 200 mM L-glutamine (Sigma-Aldrich, St Louis, MO, USA), and a penicillin-streptomycin (Sigma-Aldrich, St Louis, MO, USA) mixture in concentrations of 100 U/L and 10 mg/L, respectively.
The potency of the tested compounds as inhibitors of the ABCB1 efflux pump was determined using a fluorescence-based detection system, described previously in the literature [23, 26]. […] The parental (PAR) and multidrug-resistant (MDR) mouse T-lymphoma cells were adjusted to a density of 2 × 10^6/mL, re-suspended in serum-free McCoy’s 5A medium, and distributed in 0.5 mL aliquots into Eppendorf centrifuge tubes. […] The fluorescence intensity of the cell population was measured with a Partec CyFlow flow cytometer (Partec, Munster, Germany). […] The mean fluorescence intensity (%) was calculated for the treated MDR and PAR mouse T-lymphoma cells as compared to the untreated cells.

Pgp (ABCB1) ATPase = target: T1, Pgp (ABCB1) ATPase (Homo sapiens, UniProt P08183); assay: Luminescent Pgp-Glo Assay (Pgp ATPase intrinsic activity); format: biochemical; settings: 100 µM, 40 min, 37 °C; substrates stimulate basal activity (>100%)
T1 construct: purchased Promega (Madison, WI, USA)
T1 sequence (P08183 whole entry): as above
Method: Compounds 11, 12, and 18 were tested at 100 µM on their influence on the ATPase activity of the Pgp pump in the luminescence Pgp-Glo™ Assay, according to previously described methods and protocols. In this assay, luminescence was measured. The Pgp-dependent decreases in luminescence reflect the ATP consumption by Pgp. […] Thus, inhibitors give results <100% of the basal activity, while stimulators/substrates cause a statistically significant increase in the basal activity. […].
The luminescent Pgp-Glo™ Assay System used for determination of the arylideneimidazolone influence on P-glycoprotein activity was purchased from Promega (Madison, WI, USA). The assay was performed in triplicate as described previously. […]. For basal P-gp activity calculation, the membranes were incubated with 100 µM of Na3VO4. The luminescence signal was measured by a microplate reader EnSpire PerkinElmer (Waltham, MA, USA). The statistical significances were calculated using GraphPad Prism 8.0.1 software.

[1] = Cytotoxicity MTT assay, 24 h, MDR cells; format: cell-based; settings: mouse; for IC50 at 24 h: MDR cells, MTT, read-out: Cytotoxic effect IC50; for selectivity ratio at 24 h: cytotoxic action on MDR with respect to PAR cells, read-out: SI (selectivity index), cytotoxicity
Method: (§1) The cytotoxicity of compounds 7–20 was examined in both aforementioned PAR and MDR mouse T-lymphoma cell lines, using the MTT assay to estimate IC50 values. The selectivity index for cytotoxic action on MDR with respect to PAR cells was calculated (SI, Table 3). […] This range of SI may indicate ABCB1-efflux pump substrate properties for the whole series (7–20), especially distinct in the case of 19 (SI ≤ 0.29), and slightly weaker for 8, 12, 16, and 18.
(§2) L5178 mouse T-cell lymphoma cells (PAR) (ECACC Cat. No. 87111908, obtained from FDA, Silver Spring, MD, USA) were transfected with pHa MDR1/A retrovirus, as previously described by Cornwell et al.. The ABCB1-expressing cell line L5178Y (MDR) was selected by culturing the infected cells with colchicine. The parental L5178 mouse T-cell lymphoma cells and the L5178Y human ABCB1-transfected subline were cultured in McCoy’s 5A medium (Sigma-Aldrich, St Louis, MO, USA) supplemented with 10% heat-inactivated horse serum (Sigma-Aldrich, St Louis, MO, USA), 200 mM L-glutamine (Sigma-Aldrich, St Louis, MO, USA), and a penicillin-streptomycin (Sigma-Aldrich, St Louis, MO, USA) mixture in concentrations of 100 U/L and 10 mg/L, respectively. The cell lines were incubated at 37 °C, in a 5% CO2, 95% air atmosphere.
(§3) Cytotoxicity and antiproliferative assays were performed following the procedure described in the literature. Parental and multidrug-resistant mouse T-lymphoma cells were used to determine the effect of the arylideneimidazolones on the growth of cells. The effects of increasing concentrations of arylideneimidazolones on cell growth were tested in 96-well flat-bottomed microtiter plates. The compounds were diluted in a volume of 100 μL of medium.
(§4) In the case of the mouse T-lymphoma cells, the two-fold serial dilutions were prepared in 100 μL of McCoy’s 5A, horizontally. The parental (PAR) and multidrug-resistant (MDR) mouse T-lymphoma cells were adjusted to a density of 1 × 10^4 cells (for cytotoxic assay) and 6 × 10^3 (for antiproliferative assay) in 100 μL of McCoy’s 5A medium and were added to each well, with the exception of the medium control wells.
(§5) The culture plates were incubated at 37 °C for 24 h (for cytotoxicity assay) and 72 h (for antiproliferative assay); at the end of the incubation period, 20 μL of MTT (thiazolyl blue tetrazolium bromide, Sigma) solution (from a stock solution of 5 mg/mL) were added to each well. After incubation at 37 °C for 4 h, 100 μL of sodium dodecyl sulfate (SDS) (Sigma) solution (10% in 0.01 M HCI) were added to each well and the plates were further incubated at 37 °C overnight. Cell growth was determined by measuring the optical density (OD) at 540/630 nm with a Multiscan EX ELISA reader (Thermo Labsystems, Cheshire, WA, USA).
(§6) Results have been expressed in terms of IC50, defined as the inhibitory dose that reduces the growth of the cells exposed to the tested compounds by 50%, each representing the mean of a minimum of three independent experiments.

[2] = system: multidrug-resistant (MDR) mouse T-lymphoma cells; assay: Antiproliferative MTT assay, 72 h, MDR cells; format: cell-based; settings: for SI (selectivity index), antiproliferative: MDR with respect to PAR cells; for IC50: Mus musculus, MDR cells, 72 h, MTT, read-out: Antiproliferative effect IC50
Method: (§7) The ABCB1-expressing cell line L5178Y (MDR) was selected by culturing the infected cells with colchicine. The parental L5178 mouse T-cell lymphoma cells and the L5178Y human ABCB1-transfected subline were cultured in McCoy’s 5A medium (Sigma-Aldrich, St Louis, MO, USA) supplemented with 10% heat-inactivated horse serum (Sigma-Aldrich, St Louis, MO, USA), 200 mM L-glutamine (Sigma-Aldrich, St Louis, MO, USA), and a penicillin-streptomycin (Sigma-Aldrich, St Louis, MO, USA) mixture in concentrations of 100 U/L and 10 mg/L, respectively.
as §3, §4
(§8) Cell growth was determined by measuring the optical density (OD) at 540/630 nm with a Multiscan EX ELISA reader (Thermo Labsystems, Cheshire, WA, USA).

[3] = Cytotoxicity MTT assay, 24 h, PAR cells; format: cell-based; settings: mouse, parental (PAR) L5178 mouse T-cell lymphoma cells, read-out: Cytotoxic effect IC50
Method: as §1, §2, §3, §4, §5, §6

[4] = Safety in vitro, MTS assay in HEK-293 cells; format: cell-based, human; settings: human, HEK-293 cells, 50 µM, read-out: HEK-293 cell viability
Method: (§9) For safety assay, cells were seeded in 96-well plates at a concentration of 1 × 10^4 cells/well and incubated for 24 h at 37 °C in 5% CO2 atmosphere to reach 50% of confluence. Compounds 11, 12, and 18 were diluted into fresh growth medium and added to the cells at the final concentrations of 0.1–100 μM. The positive control DOX (1 μM) was also added and the cells were incubated for 72 h. The MTS (3-(4,5-dimethylthiazol-2-yl)-5-(3-carboxymethoxyphenyl)-2-(4-sulfophenyl)-2H-tetrazolium) reagent (CellTiter 96® AQueous One Solution Cell Proliferation Assay, Promega, Madison, WI, USA) was added next to each well and incubated for 4 h. The absorbance was measured using a microplate reader (EnSpire, PerkinElmer, Waltham, MA USA) at 490 nm to determine the cells’ viability. The statistical significances were calculated using GraphPad Prism 8.0.1 software.

HEK-293 cells = assay: Safety in vitro, MTS assay in HEK-293 cells; format: cell-based, human; settings: highest used concentrations (50 and 100 µM), 72 h
Method: as §9

[5] = system: parental (PAR) mouse T-lymphoma cells; assay: Antiproliferative MTT assay, 72 h, PAR cells; format: cell-based; settings: read-out: Antiproliferative effect IC50
Method: as §7, §3, §4, §8

[6] = concentration 20 µM, VER values for assay group 1 / 2

| efflux pump inhibiting effect relative to verapamil (ABCB1 efflux pump) | FAR Quotient (%) (ABCB1 efflux pump; concentration 2 µM) | FAR (fluorescence activity ratio) (ABCB1 efflux pump; concentration 2 µM) | FAR Quotient (%) (ABCB1 efflux pump; concentration 20 µM) | FAR (fluorescence activity ratio) (ABCB1 efflux pump; [6]) | effect on ABCB1 basal activity (Pgp ATPase) (Pgp (ABCB1) ATPase) | IC50 [2] [µM] | melting point [°C] | SMILES | IC50 at 24 h [1] [µM] | selectivity ratio at 24 h [1] | SI (selectivity index), antiproliferative [2] | IC50 at 24 h [3] [µM] | viability at 72 h, 50 µM [4] [%] | effect on HEK-293 cell viability (HEK-293 cells) | IC50 [5] [µM] |
| --- | --- | --- | --- | --- | --- | --- | --- | --- | --- | --- | --- | --- | --- | --- | --- |
| ~1.5 fold and 1.38–1.46 fold | 7.51 | 1.203 | 146.22 | 23.419 | increase in basal activity | 25.6 | – | Cl.O=C1N=C(N2CCC(N3CCOCC3)CC2)N/C1=C\c1ccc(Oc2ccccc2)cc1 [Compound 11, (Z)-5-(4-Phenoxybenzylidene)-2-(4-morpholinopiperidin-1-yl)-imidazol-4(5H)-one hydrochloride] | 45.5 | 0.86 | 0.97 | 39.1 | 84.2 | significantly decreased HEK-293 cell viability | 24.8 |
| – | 8.88 | 1.161 | 46.23 | 6.045 | increased the basal activity | 16.2 | 274 to 276 | Cl.O=C1N=C(N2CCC(N3CCOCC3)CC2)N/C1=C\c1ccc2c(c1)Cc1ccccc1-2 [Compound 12, (Z)-5-((9H-Fluoren-2-yl)methylene)-2-(4-morpholinopiperidin-1-yl)-imidazol-4(5H)-one hydrochloride] | 30.8 | 0.51 | 0.78 | 15.8 | – | – | 12.7 |
| ~1.5 fold and 1.38–1.46 fold | 7.94 | 1.038 | 138.37 | 18.095 | increase in basal activity | 10.8 | 261 to 263 | Cl.NC1=N/C(=C\c2ccc3c(c2)Cc2ccccc2-3)C(=O)N1CCCN1CCOCC1 [Compound 18, (Z)-5-((9H-Fluoren-2-yl)methylene)-2-amino-3-(3-morpholinopropyl)-imidazol-4(5H)-one hydrochloride] | 27.8 | 0.58 | 1.24 | 16 | 10.3 | significantly decreased HEK-293 cell viability | 13.4 |
